# Measurements from patent publication US9850283B2, “Macrocyclic inhibitors of the PD-1/PD-L1 and CD80(B7-1)/PD-L1 protein/protein interactions” (BRISTOL-MYERS SQUIBB COMPANY, priority 2013, dated 2017).
# Read-outs that look alike come from different tables or passages of the source. Starred links: 1 amine or outer side, 2 acyl side, 3 side chain; linkers in the order of their positions; H or OH if unused. Positions of bridges follow the written chain, without caps; N, C: chain ends. Non-standard residues stand in square brackets, D forms with d. Residues, ends and D or L forms follow the SMILES beside them. ξ: configuration not given here. *: point of attachment. Phe(3,4,5-F3) = N[C@@H](Cc1cc(F)c(F)c(F)c1)C(=O)O; NHTrityl = c1ccc(C(N*)(c2ccccc2)c2ccccc2)cc1; Phe(4-Br) = N[C@@H](Cc1ccc(Br)cc1)C(=O)O; d(cisHyp) = O=C(O)[C@H]1C[C@@H](O)CN1; Bta = N[C@@H](Cc1csc2ccccc12)C(=O)O; Hyp = O=C(O)[C@@H]1C[C@@H](O)CN1; NMeF = CN[C@@H](Cc1ccccc1)C(=O)O; X4 = O=C([C@H]1COCCN1[*:1])[*:2]; dNMeE = CN[C@H](CCC(=O)O)C(=O)O; Thr(3ξ) = CC(O)[C@H](N)C(=O)O; NMeNle = CCCC[C@H](NC)C(=O)O; NMeM = CN[C@@H](CCSC)C(=O)O; NMeA = CN[C@@H](C)C(=O)O; Orn = NCCC[C@H](N)C(=O)O; Dap = NC[C@H](N)C(=O)O; ξC = NC(CS)C(=O)O; Sar = CNCC(=O)O
# Assays:
# Human PD-L1/PD-1 = target: T1, Human PD-L1/PD-1 (Homo sapiens, UniProt Q9NZQ7); assay: HTRF PD-1-Ig/PD-L1-His binding assay (human PD-L1)
# T1 construct: made in house; host or cells: HEK293T
# T1 sequence (Q9NZQ7 with tags, fused parts or gaps): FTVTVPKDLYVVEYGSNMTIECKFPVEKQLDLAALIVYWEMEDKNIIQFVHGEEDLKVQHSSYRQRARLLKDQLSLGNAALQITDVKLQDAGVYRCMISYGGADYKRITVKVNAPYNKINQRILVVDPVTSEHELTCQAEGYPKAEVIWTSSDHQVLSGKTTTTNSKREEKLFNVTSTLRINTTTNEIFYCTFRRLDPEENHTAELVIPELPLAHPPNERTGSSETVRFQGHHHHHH
# Summary of the method: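 Ig- and His-fused extracellular PD-1/PD-L1 binding in BSA/Tween-20 dPBS. HTRF with Eu anti-Ig (1 nM final) and APC anti-His (20 nM final).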
# [1] = target: T2, LK35.2-hPD-L1 cells / PE-labeled PD-1-Ig (Homo sapiens, UniProt Q9NZQ7); assay: LK35.2-hPD-L1 cell binding high-content screening assay; format: cell-based
# T2 construct: expressed in transfected cells; host or cells: LK35.2 mouse B cell line
# T2 sequence (Q9NZQ7 19-290): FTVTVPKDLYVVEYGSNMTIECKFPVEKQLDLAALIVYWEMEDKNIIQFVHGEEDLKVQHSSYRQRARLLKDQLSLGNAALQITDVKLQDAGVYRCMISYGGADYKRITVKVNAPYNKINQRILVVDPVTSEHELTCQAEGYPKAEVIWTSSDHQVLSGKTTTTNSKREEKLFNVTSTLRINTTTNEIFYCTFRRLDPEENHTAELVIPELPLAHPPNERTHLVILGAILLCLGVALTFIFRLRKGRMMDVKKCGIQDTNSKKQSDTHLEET
# Experimental: LK35.2-hPD-L1 Cell Binding High-Content Screening Assay. Phycoerythrin (PE) was covalently linked to the Ig epitope tag of human PD-1-Ig and fluorescently-labeled PD-1-Ig was used for binding studies with a mouse B cell line (LK35.2) stably over-expressing human PD-L1 (LK35.2-hPD-L1). Briefly, 3×10^3 LK35.2-hPD-L1 cells were seeded into 384 well plates in 20 ul of RPMI supplemented with 10% fetal calf serum and cultured overnight. 125 nl of compound was added to cells, followed by 5 ul of PE-labeled PD-1-Ig (1 nM final), diluted in RPMI supplemented with 10% fetal calf serum, followed by incubation at 37° C. for 1 h. […] Cells were washed 3× in 100 ul of dPBS followed by final addition of 15 ul of dPBS. Data was collected and processed using a Cell Insight NXT High Content Imager and associated software.
# [2] = cluster symbol, read-out: HTRF IC50 cluster
# [3] = cell binding assay, cell line not given, cluster symbol, read-out: CBA IC50 cluster
IC50 (Human PD-L1/PD-1; [2]) [nM],"IC50 [1, 3] [nM]","IC50 ([1]; cluster symbol, cell line of CBA not given (LK35.2-hPD-L1 or 293T-hPD-L1), read-out: CBA IC50 cluster) [nM]",SMILES,"IC50 (Human PD-L1/PD-1; HTRF IC50 value, value given instead of cluster) [nM]","IC50 ([1]; CBA IC50 value, cell binding assay, cell line not given, value given instead of cluster) [nM]"
> 30.5,> 74.3,,"CCCC[C@H]1C(=O)N(C)CC(=O)N[C@@H](CC(=O)O)C(=O)N[C@@H](C(C)C)C(=O)N[C@@H](Cc2ccc(O)cc2)C(=O)N[C@@H](Cc2ccc(O)cc2)C(=O)N(C)CC(=O)N[C@@H](Cc2c[nH]c3ccccc23)C(=O)N[C@@H](Cc2ccc(O)cc2)C(=O)N[C@@H](CC(C)C)C(=O)N[C@H](C(=O)NCC(N)=O)CSCC(=O)N[C@@H](Cc2ccccc2)C(=O)N(C)[C@@H](Cc2ccccc2)C(=O)N1C [Example 3504] (HELM PEPTIDE1{[O=C(C[*:3])[*:2]].F.[meF].[CCCC[C@@H](C(=O)[*:2])N(C)[*:1]].[Sar].D.V.Y.Y.[Sar].W.Y.L.C.G.[am]}$PEPTIDE1,PEPTIDE1,1:R3-14:R3$$$V2.0)",,
6.76 to 30.3,4.78 to 72.9,,CCCC[C@H]1C(=O)N(C)[C@@H](CCCC)C(=O)N[C@@H](CCCNC(=N)N)C(=O)N[C@H](C(=O)NCC(N)=O)CSCC(=O)N[C@@H](Cc2ccccc2)C(=O)N(C)[C@@H](C)C(=O)N[C@@H](CC(N)=O)C(=O)N2CCC[C@H]2C(=O)N[C@@H](Cc2cnc[nH]2)C(=O)N[C@@H](C(C)O)C(=O)N(C)CC(=O)N[C@@H](Cc2c[nH]c3ccccc23)C(=O)N[C@@H](CO)C(=O)N[C@@H](Cc2c[nH]c3ccccc23)C(=O)N1C (some centres unmarked) [Example 6005] ({CH2CO}-F[NMeA]NPH[Thr(3ξ)][Sar]WSW[NMeNle][NMeNle]RCG-NH2; thioether N-14),,
0.385 to 6.74,0.158 to 4.71,,CCCC[C@H]1C(=O)N(C)[C@@H](CCSC)C(=O)N[C@@H](CCCNC(=N)N)C(=O)NC(C(=O)NCC(N)=O)CSCC(=O)N[C@@H](Cc2ccc(O)cc2)C(=O)N(C)[C@@H](C)C(=O)N[C@@H](CC(N)=O)C(=O)N2CCC[C@H]2C(=O)N[C@@H](Cc2cnc[nH]2)C(=O)N[C@@H](CC(C)C)C(=O)N2CCC[C@H]2C(=O)N[C@@H](Cc2c[nH]c3ccccc23)C(=O)N[C@@H](CO)C(=O)N[C@@H](Cc2csc3ccccc23)C(=O)N1C (some centres unmarked) [Example 9022] ({CH2CO}-Y[NMeA]NPHLPWS[Bta][NMeNle][NMeM]R[ξC]G-NH2; thioether N-14),,
0.385 to 6.74,0.158 to 4.71,,"CCCC[C@H]1C(=O)N2C[C@H](O)C[C@@H]2C(=O)N[C@@H](CC(N)=O)C(=O)N[C@@H](C(C)C)C(=O)N(C)[C@@H](Cc2ccccc2)C(=O)N[C@@H](CCC(=O)O)C(=O)N2CCOC[C@@H]2C(=O)N[C@@H](Cc2c[nH]c3ccccc23)C(=O)N[C@@H](Cc2ccc(O)cc2)C(=O)N[C@@H](CCCN)C(=O)N[C@H](C(=O)NCC(N)=O)CSCC(=O)N[C@@H](Cc2cc(F)c(F)c(F)c2)C(=O)N(C)[C@@H](Cc2ccccc2)C(=O)N1C [Example 3608] ({CH2CO}-[Phe(3,4,5-F3)][NMeF][NMeNle][d(cisHyp)]NV[NMeF]E[X4]WY[Orn]CG-NH2; thioether N-13)",,
6.76 to 30.3,0.158 to 4.71,,CCCC[C@H]1C(=O)N(C)[C@@H](CCSC)C(=O)N[C@@H](CCCNC(=N)N)C(=O)NC(C(=O)NCC(N)=O)CSCC(=O)N[C@@H](Cc2ccc(O)cc2)C(=O)N(C)[C@@H](C)C(=O)N[C@@H](CC(N)=O)C(=O)N2CCC[C@H]2C(=O)N[C@@H](CN)C(=O)N[C@@H](CC(C)C)C(=O)N2C[C@H](O)C[C@H]2C(=O)N[C@@H](Cc2c[nH]c3ccccc23)C(=O)N[C@@H](CO)C(=O)N[C@@H](Cc2c[nH]c3ccccc23)C(=O)N1C (some centres unmarked) [Example 9083] ({CH2CO}-Y[NMeA]NP[Dap]L[Hyp]WSW[NMeNle][NMeM]R[ξC]G-NH2; thioether N-14),,
> 30.5,,4.78 to 72.9,CCCC[C@H]1C(=O)N(C)CC(=O)N[C@@H](CC(=O)O)C(=O)N[C@@H](C(C)C)C(=O)N(C)[C@@H](Cc2ccccc2)C(=O)N[C@@H](Cc2ccc(O)cc2)C(=O)N(C)CC(=O)N[C@@H](Cc2c[nH]c3ccccc23)C(=O)N[C@@H](Cc2ccc(O)cc2)C(=O)N[C@@H](CC(C)C)C(=O)N[C@H](C(=O)NCC(N)=O)CSCC(=O)N[C@@H](Cc2ccc(Br)cc2)C(=O)N(C)[C@@H](Cc2ccccc2)C(=O)N1C [Example 3081] ({CH2CO}-[Phe(4-Br)][NMeF][NMeNle][Sar]DV[NMeF]Y[Sar]WYLCG-NH2; thioether N-13),,
,,,CCCC[C@H]1C(=O)N2C[C@H](O)C[C@@H]2C(=O)N[C@H](CC(=O)NC(c2ccccc2)(c2ccccc2)c2ccccc2)C(=O)N[C@@H](C(C)C)C(=O)N(C)[C@@H](Cc2ccccc2)C(=O)N[C@@H](Cc2ccc(O)cc2)C(=O)N(C)[C@H](CCC(=O)O)C(=O)N[C@@H](Cc2c[nH]c3ccccc23)C(=O)N[C@@H](Cc2ccc(O)cc2)C(=O)N[C@@H](CCCCN)C(=O)N[C@H](C(=O)NCC(N)=O)CSCC(=O)N[C@@H](Cc2ccccc2)C(=O)N(C)[C@@H](Cc2ccccc2)C(=O)N1C [Example 3595] ({CH2CO}-F[NMeF][NMeNle][d(cisHyp)][dD](NHTrityl)V[NMeF]Y[dNMeE]WYKCG-NH2; thioether N-13),991,123
